Results on 9 compounds are retold here after PubChem BioAssay (NCI).

Values joined by “and” are separate entries in the source; they are usually repeats but may differ in a detail not shown here. Equal values may be shown once.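 Test compounds were applied to cells in 96-well plates for 48 hours at 5 doses. GI50: concentration for 50% inhibition of growth. TGI marks complete inhibition of growth.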

Assay in all cases: growth of human tumour cells (NCI), 48 h
The test system of test [1] is HOP-18 NSCLC.
The test system of test [2] is TK-10 renal.
Test [3] has as its system IGROV1 ovarian.
Test [4] relates to HCT-15 colon.
The test system of test [5] is SK-OV-3 ovarian.
Test [6] deals with U251 CNS.
For test [7], the system named is COLO 205 colon.
The test system of test [8] is SN12C renal.
The subject of test [9] is DMS 114 small cell lung.
Test [10] concerns NCI-H23 lung.

For `Cc1c2ccncc2c(C)c2c1[nH]c1ccc(Cl)cc12`, the TGI is 18 µM in [1]; 18.1 µM in test [2]; 13.7 µM and 21.1 µM in test [3]; 5.17 µM and 3.23 µM in [4]; 17.9 µM and 31.1 µM in test [5]; 11.5 µM and 2.94 µM in test [6]. The TGI in test [7] is 9.41 µM and 15 µM; in test [8] it was 10.1 µM and 7.46 µM; in test [9], 6.1 µM and 13 µM; in test [10], 11.2 µM and 15 µM. The GI50 in [3] is 3.88 µM; in test [4] it was 1.41 µM; in [5] it was 12.2 µM; in test [6] it was 1.49 µM; in [7], 3.09 µM; in test [8], 1.41 µM. In addition, the GI50 was 2.6 µM in test [9] and 2.99 µM in test [10].

`Cc1ccc(/C=N/NS(=O)(=O)c2ccccc2)c(C)c1`: the TGI in test [1], in test [2], in test [3], in test [4], in test [5] and in test [6] was more than 100 µM each time. Also, the TGI in test [7], in [8], in [9] and in [10] was more than 100 µM throughout.

As for `COc1ccc2c(c1)c1c3n2CCNN=C3CCC1`, the TGI in [1] is more than 100 µM; in [2], more than 86.9 µM; in test [3], more than 100 µM; in [4] it was more than 100 µM; in test [5] it was more than 100 µM; in test [6], more than 100 µM. For the same compound, the TGI in test [7], in test [8], in [9] and in test [10] was more than 100 µM in each case.

For the compound `O=c1c2ccccc2nc(-c2ccccc2)n1NC(=S)Nc1cccc(Cl)c1`, the TGI in [1], in test [2], in test [3], in [4], in test [5] and in [6] was more than 100 µM in each case. Further, the TGI in [7], in [8], in test [9] and in test [10] was more than 100 µM throughout.

Take `O=C1C=Cc2ncccc2C1=O`: the TGI is more than 64.7 µM in test [1]; more than 58.8 µM in test [2]; more than 58.3 µM in test [3]; 33.5 µM in [4]; more than 61.7 µM in test [5]; more than 57.8 µM in test [6]. In addition, the TGI in test [7] was found to be 32.5 µM; in [8] it was 48.9 µM; in [9] it was 33.6 µM; in test [10], 39.6 µM.

Turning to `CC(=O)Nc1ccc(-c2nnc(SCC(=O)Nc3ccc(Cl)cc3)o2)cc1`, the TGI in test [1] turned out to be 30.2 µM; in [2] it was 32.4 µM; in test [3], 29.3 µM; in test [4], 40 µM; in test [5], 47.1 µM; in test [6], 12.9 µM. The TGI in test [7] was found to be 34.6 µM; in test [8], 27.5 µM; in test [9], 4.29 µM; in test [10], 18.2 µM.

Turning to `N#C/C(=C\c1ccc2[nH]ccc2c1)C(=O)c1ccc(O)c(O)c1`, the TGI in [1], in [2], in test [3], in test [4], in [5] and in [6] was more than 100 µM in each case. In addition, the TGI in test [7], in test [8], in test [9] and in test [10] was more than 100 µM each time.

On to `O=S1(=O)c2ccccc2N=C(c2ccccc2Cl)CC1c1ccc(F)cc1` (stereo not drawn), for which the TGI in test [1] is 29.3 µM; in [2], 50.4 µM; in [3] it was 37.4 µM; in [4] it was 35.6 µM; in [5], 89 µM; in test [6], 28.4 µM. The TGI in [7] came to 40.3 µM; in test [8], 29.1 µM; in [9], 41.1 µM; in test [10] it was 32.2 µM.

On to `Cn1nc(-c2ccccc2)c(C(=O)/C=C/c2ccc(Cl)cc2)c(N2CCCC2)c1=O`, for which the TGI in test [1] was 19.4 µM; in test [2] it was 26.6 µM; in test [3] it was 27.9 µM; in [4], more than 100 µM; in test [5], 18.8 µM; in [6], 15.5 µM. Also, the TGI in [7] amounted to 4.07 µM; in [8] it was 54 µM; in [9] it was 9.8 µM; in test [10] it was 10.6 µM.
